Like-named read-outs stand apart in the source and are kept apart here.
Experiments:
[1] = system: human GPER; design: method as in Thomas and Dong 2006; details: ref Thomas and Dong 2006; cited from earlier work
[2] = molecular target: T1, GPER (Homo sapiens, UniProt Q99527); test: cell-based
[3] = molecular target: T1, GPER; test: SKBR3 cell-based fluorescence competitive binding assay (E2-F probe, flow cytometry)
[4] = system: GPER-mediated signaling in SKBR3 cells; test: cAMP assay in SKBR3 cells; type: cell-based, human; details: for significant dose-dependent increase in cAMP production compared to control / LOEC, cAMP production: SKBR3 cells; for LOEC, cAMP production: 30 min treatment
Description: SKBR3 cells ( 2×10^4 cells) were seeded in 96-well microplates which were precoated with a capture antibody for the cAMP-antibody complex (Invitrogen). […].

[5] = system: GPER-mediated signaling in SKBR3 cells; test: Calcium mobilization assay in SKBR3 cells; type: cell-based, human; details: for significant dose-dependent increase in calcium mobilization compared to control: SKBR3 cells; for LOECs, activation of GPER signaling pathways: abstract summary over calcium mobilization and cAMP accumulation in SKBR3 cells
[6] = system: ERα; design: method as in Li et al. 2013; details: ref Li et al. 2013; cited from earlier work
[7] = system: SKBR3 cells; test: Wound-healing cell migration assay; type: cell-based, human; details: for LOEC, SKBR3 cell migration, wound-healing assay: 48 h; for LOECs, promotion of SKBR3 cell migration via GPER pathways: abstract summary over Boyden chamber and wound-healing assays
Description: For the wound-healing assays, SKBR3 cells were seeded in 12-well microplates at a density of 2.5×10^5 cells/well, incubated first in phenol red–free RPMI 1640 with 10% FBS for 12 h and then in phenol red–free RPMI 1640 without FBS for another 12 h. The cell layer was wounded with a sterile 200-μL pipet tip and washed 3 times with phenol red–free RPMI 1640. […] The closure of the scratch was photographed using an inverted microscope (ROCTEC) coupled to a camera (Canon). The change in the scratch area was evaluated using Image-Pro Plus 6.0 (Media Cybernetics). The relative cell migration was calculated by comparing the change in the wound area in the treated wells with those in the control wells.

[8] = system: SKBR3 cells; test: Boyden chamber cell migration assay; type: cell-based, human; details: for LOEC, SKBR3 cell migration, Boyden chamber assay: 48 h
Description: SKBR3 cell migration was evaluated using Boyden chamber and wound-healing assays as described previously with slight modification ([Cao et al. 2017]). For the Boyden chamber assay, 24-well plates containing cell culture inserts with 8-μm pore size (Corning) were used. The cells ( 8×10^4 cells, 100μL ) were seeded in the upper chamber, and the lower chamber was supplied with 600μL phenol red–free RPMI 1640 with 10% FBS (Invitrogen). After 12 h, the cells were incubated with phenol red–free RPMI 1640 without FBS for another 12 h. […] After incubation for 48 h, the cells on the upper side of the insert membrane were removed with cotton swabs, and the cells on the lower surface of the membrane were fixed with methanol for 10 min and stained with 0.1% crystal violet (Sigma-Aldrich). Then, the cells were counted under an inverted microscope (ROCTEC) coupled to a camera (Canon), and six fields were randomly chosen per chamber. The relative cell migration was determined by comparing the average number of cells in the six fields of the treated chamber to those in the control chamber.

[9] = system: SH-SY5Y cells; design: method as in Tian et al. 2016; details: activity inhibited by GPER antagonist G15; ref Tian et al. 2016; cited from earlier work
[10] = system: rats; details: exposure of pregnant rats, 1–10mg/kg, cited from earlier work
[11] = system: zebrafish GPER; design: method as in Fitzgerald et al. 2015; details: ref Fitzgerald et al. 2015, cited from earlier work; for binding to zebrafish GPER at a single tested concentration: 1μM
[12] = ratio between IC50 of E2 and compounds, E2 = 100%
[13] = E2-treated SKBR3 cells, G15 pretreatment 2 h

T1 sequence (Q99527 whole entry): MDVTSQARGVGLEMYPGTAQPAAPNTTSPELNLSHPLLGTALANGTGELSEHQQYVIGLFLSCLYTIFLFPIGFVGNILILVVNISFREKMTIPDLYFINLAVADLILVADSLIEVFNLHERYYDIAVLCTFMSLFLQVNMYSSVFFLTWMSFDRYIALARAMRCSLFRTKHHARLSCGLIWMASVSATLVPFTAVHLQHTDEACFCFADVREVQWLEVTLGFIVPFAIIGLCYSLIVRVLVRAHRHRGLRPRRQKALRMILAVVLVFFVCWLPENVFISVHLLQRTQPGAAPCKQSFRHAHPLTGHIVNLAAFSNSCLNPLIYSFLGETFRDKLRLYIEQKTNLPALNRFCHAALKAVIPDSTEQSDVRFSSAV

For `Clc1ccc(C(c2ccc(Cl)cc2)C(Cl)(Cl)Cl)cc1` [2,2-bis(p-chlorophenyl)-1,1,1-trichloroethane], the “RBA to human GPER compared to E2” value [1] is listed as 0.2–1.3%.

For `Clc1ccc(C(c2ccccc2Cl)C(Cl)Cl)cc1` (stereo not drawn) [2-(2-chlorophenyl)-2-(4-chlorophenyl)-1,1-dichloroethane], the “RBA to human GPER compared to E2” value [1] is given as 0.2–1.3%.

For `Oc1ccccc1Oc1ccc(Br)cc1` [2ʹ-OH-BDE-003, 2'-hydroxy-4-monobromodiphenyl ether], the IC50 [2] was 20 µM and the “RBA (relative binding affinity)” value [3, 12] was 1.3%.

In the case of `Oc1c(Br)ccc(Oc2ccc(Br)cc2Br)c1Br` [3-OH-BDE-047, 3-hydroxy-2,2',4,4'-tetrabromodiphenyl ether], the “significant dose-dependent increase in cAMP production compared to control” value [4] is reported as “exceptions”, the “significant dose-dependent increase in calcium mobilization compared to control” value [5] is reported as “exceptions” and the IC50 [3] is reported as 12 µM. For the same compound, the “RBA (relative binding affinity)” value [3] was 2.2%.

For `Oc1c(Br)cc(Br)c(Oc2ccc(Br)cc2Br)c1Br` [3-OH-BDE-100, 3-hydroxy-2,2',4,4',6-pentabromodiphenyl ether], the “significant dose-dependent increase in cAMP production compared to control” value [4] was “exceptions”, the “significant dose-dependent increase in calcium mobilization compared to control” value [5] was “exceptions” and the IC50 [2] was 3.6 µM. The “RBA (relative binding affinity)” value [3] was 7.2% and the “type of activity on ERα” value [6] was “antagonists”.

In the case of `Oc1cccc(Oc2ccc(Br)cc2Br)c1` [3ʹ-OH-BDE-007, 3'-hydroxy-2,4-dibromodiphenyl ether], the IC50 [2] is reported as 2.6 µM and the “RBA (relative binding affinity)” value [3, 12] is reported as 10.0%.

For `Oc1cc(Oc2ccc(Br)cc2Br)ccc1Br` [3ʹ-OH-BDE-028, 3'-hydroxy-2,4,4'-tribromodiphenyl ether], the IC50 [2] was 3 µM and the “RBA (relative binding affinity)” value [3, 12] was 8.7%.

For `Oc1c(Br)cc(Br)c(Oc2cc(Br)c(Br)cc2Br)c1Br` [3ʹ-OH-BDE-154, 3'-hydroxy-2,2',4,4',5,6'-hexabromodiphenyl ether], the “LOEC, SKBR3 cell migration, wound-healing assay” value (shortened to “LOEC … wound-healing assay”) [7] was 100 nM, the “LOECs, promotion of SKBR3 cell migration via GPER pathways” value (from here on “LOECs, promotion”) [7] was 0.1 to 1 µM and the “LOECs, activation of GPER signaling pathways” value (“LOECs, activation” for short) [5] was 10 to 100 nM. The IC50 [2] was 1.3 µM, the “type of activity on ERα” value [6] was “antagonists” and the “LOEC, SKBR3 cell migration, Boyden chamber assay” value (“LOEC … Boyden chamber assay” below) [8] was 100 nM.

In the case of `Oc1c(Br)c(Br)c(Oc2cc(Br)c(Br)cc2Br)c(Br)c1Br` [4-OH-BDE-187, 4-hydroxy-2,2',3,4',5,5',6-heptabromodiphenyl ether], the IC50 [2] is reported as 6.2 µM and the “RBA (relative binding affinity)” value [3, 12] is reported as 4.2%.

For `Oc1ccc(-c2cc(Cl)ccc2Cl)c(Cl)c1` [4-hydroxy-2,2ʹ,5ʹ-trichloro-biphenyl], the “RBA to human GPER compared to E2” value [1] is given as 0.2–1.3%.

In the case of `Oc1cc(Br)c(Oc2ccc(Br)cc2Br)cc1Br` [4ʹ-OH-BDE-049, 4'-hydroxy-2,2',4,5'-tetrabromodiphenyl ether], the “LOEC … wound-healing assay” value [7] is reported as 1000 nM, the “LOECs, promotion” value [7] is reported as 0.1 to 1 µM and the “LOECs, activation” value [5] is reported as 10 to 100 nM. For the same compound, the IC50 [2] was 2.8 µM, the “RBA (relative binding affinity)” value [3, 12] was 9.3% and the “LOEC … Boyden chamber assay” value ([8]; text: same LOECs as for the wound-healing assay) was 1000 nM.

For `Oc1c(Br)c(Br)c(Oc2c(Br)cc(Br)c(Br)c2Br)c(Br)c1Br` [4ʹ-OH-BDE-201, 4'-hydroxy-2,2',3,3',4,5',6,6'-octabromodiphenyl ether], the IC50 [2] was 5.3 µM and the “RBA (relative binding affinity)” value [3, 12] was 4.9%.

With `Oc1cc(Oc2cc(Br)c(Br)cc2Br)c(Br)cc1Br` [5ʹ-OH-BDE-099, 5'-hydroxy-2,2',4,4',5-pentabromodiphenyl ether] the “LOEC … wound-healing assay” value [7] was 100 nM, the “LOECs, promotion” value [7] was 0.1 to 1 µM and the “LOECs, activation” value [5] was 10 to 100 nM. For the same compound, the IC50 [2] was 1.3 µM, the “type of activity on ERα” value [6] was “antagonists” and the “LOEC … Boyden chamber assay” value [8] was 100 nM.

In the case of `Oc1cc(Br)c(Br)c(Br)c1Oc1ccc(Br)cc1Br` [6-OH-BDE-085, 6-hydroxy-2,2',3,4,4'-pentabromodiphenyl ether], the “type of activity on ERα” value [6] is listed as “antagonists”.

With `Oc1c(Br)c(Br)c(Br)c(Br)c1Oc1cc(Br)c(Br)cc1Br` [6-OH-BDE-180, 6-hydroxy-2,2',3,4,4',5,5'-heptabromodiphenyl ether] the IC50 [2] was 4.8 µM and the “RBA (relative binding affinity)” value [3, 12] was 5.4%.

In the case of `Brc1ccc(Oc2ccc(Br)cc2Br)c(Br)c1` [BDE-047, 2,2',4,4'-tetrabromodiphenyl ether], the “effect on migration of SH-SY5Y cells” value [9] is listed as “stimulated the migration”.

For `Brc1ccc(Oc2cc(Br)c(Br)cc2Br)c(Br)c1` [BDE-099, 2,2',4,4',5-pentabromodiphenyl ether], the “estrogen target genes in the uterus of female offspring” value ([10]; ref Ceccatelli et al. 2006) is given as “changes in the regulation of estrogen target genes” and the “sex steroid levels in male and female offspring” value ([10]; ref Lilienthal et al. 2006) is given as “decreases in sex steroid levels”.

In the case of `CC(C)(c1ccc(O)cc1)c1ccc(O)cc1` [BPA, bisphenol A], the “RBA to human GPER compared to E2” value [1] is given as 2.8% and the “RBA to zebrafish GPER” value [11] is given as 15.8%.

In the case of `C[C@]12CC[C@@H]3c4ccc(O)cc4CC[C@H]3[C@@H]1CC[C@@H]2O` [E2, 17β-estradiol, reference compound], the “LOEC, cAMP production” value [4] is reported as 1 nM, the “LOEC … wound-healing assay” value [7] is reported as 1 nM and the “LOEC … Boyden chamber assay” value [8] is reported as 1 nM.

For `CC(=O)c1ccc2c(c1)C1C=CCC1C(c1cc3c(cc1Br)OCO3)N2` (stereo not drawn) [G1, reference compound], the “LOEC, cAMP production” value [4] was 1 nM, the “LOEC … wound-healing assay” value [7] was 1 nM and the “LOEC … Boyden chamber assay” value [8] was 1 nM.

For `Brc1cc2c(cc1[C@@H]1Nc3ccccc3[C@@H]3C=CC[C@@H]31)OCO2` [G15, reference compound], the “cAMP production after G15 pretreatment versus vehicle pretreatment” value [4, 13] was “significantly lower”, the “cell migration after G15 pretreatment versus OH-PBDE alone, wound-healing” value ([7]; 1μM OH-PBDEs, 10μM G15) was “significantly less cell migration” and the “calcium mobilization after G15 pretreatment versus vehicle pretreatment” value [5, 13] was “significantly lower”. For the same compound, the “cell migration after G15 pretreatment versus OH-PBDE alone, Boyden chamber” value ([8]; 1μM OH-PBDEs, 10μM G15) was “significantly less cell migration”.

For `O=c1c(-c2ccc(O)cc2)coc2cc(O)cc(O)c12` [genistein], the “RBA to human GPER compared to E2” value [1] is given as 1.3–13.4%.

For `O=C1C2(Cl)C3(Cl)C4(Cl)C(Cl)(Cl)C5(Cl)C3(Cl)C1(Cl)C5(Cl)C24Cl` (stereo not drawn) [kepone], the “RBA to human GPER compared to E2” value [1] is given as 1.3–13.4%.

In the case of `CC(C)(c1cc(Br)c(O)c(Br)c1)c1cc(Br)c(O)c(Br)c1` [tetrabromobisphenol A], the “binding to zebrafish GPER at a single tested concentration” value [11] is given as “effective binding”.

For `CC(C)(c1cc(Cl)c(O)c(Cl)c1)c1cc(Cl)c(O)c(Cl)c1` [tetrachlorobisphenol A], the “binding to zebrafish GPER at a single tested concentration” value [11] is given as “effective binding”.

In the case of nonylphenol, the “RBA to human GPER compared to E2” value [1] is listed as 1.3–13.4%.

Reference: article PMC6071991, “Hydroxylated Polybrominated Biphenyl Ethers Exert Estrogenic Effects via Non-Genomic G Protein–Coupled Estrogen Receptor Mediated Pathways” (Environmental Health Perspectives, 2018)
